Laboratory results published in PMC10380385, “Synthesis, In Vitro, and In Vivo Investigations of Pterostilbene-Tethered Analogues as Anti-Breast Cancer Candidates” (International Journal of Molecular Sciences, 2023).

Key:
Assay type in all cases: cell-based
MCF-7 cells = test: MTT anti-proliferative assay, MCF-7; conditions: Homo sapiens, MCF7, 48 h
Experimental: (§1) The in vitro anti-proliferative activity of all synthesized analogues against MDA-MB-231 and MCF-7 cells was tested using the 3-(4,5-dimethylthiazol-2-yl)-[…] (MTT) method. […] Usually, Dox has been used as a positive control in many basic studies, especially drug screening assay. […] In the meantime, the cytotoxic activity of 2K–2N, PTE, and Dox against MCF-10A (human breast epithelial cell line) was examined. […] By contrast, the substitution of a saturated six-membered nitrogen heterocyclic ring on the side chain is extremely favorable for enhancing anti-BC efficacy (2L–2N vs. 1, PTE, 2A–2J). Based on the preceding analysis, analogue 2L was selected as the most promising anti-BC agent and used in the follow-up study.
(§2) The human breast cancer cell lines MDA-MB-231 and MCF-7 were purchased from the Chinese Academy of Science and cultured in Dulbecco’s modified Eagle’s medium (DMEM, Gibco, New York, NY, USA) containing 10% fetal bovine serum (FBS), 2 mM L-glutamine, 100 U/mL penicillin, and 100 μg/mL streptomycin. Then, the cells were maintained in a humidified incubator at 37 °C in the presence of 5% CO2.
(§3) The MTT assay was used to test the effect of PTEs on cell viability. The MDA-MB-231 (3 × 10^3 cells/well) and MCF-7 (4 × 10^3 cells/well) cells were seeded in a 96-well plate and cultured at 37 °C in a 5% CO2 incubator overnight. Afterwards, the medium was replaced with different concentrations of the title compounds (1, 3, 10, 30, and 100 μM). After incubation for 48 h, 10 μL of MTT solution (5 mg/mL) was added to each well and incubated for another 4 h. The optical density (OD) of the samples was measured using a microplate reader (Biotek, Burlington, VT, USA) at 570 nm. The inhibition rate (%) = [A570 (control) − A570 (compound)]/A570 (control) × 100%. The IC50 values were calculated using SPSS software version 17.0 (SPSS Inc., Chicago, IL, USA).

MDA-MB-231 cells = test: MTT anti-proliferative assay, MDA-MB-231; conditions: Homo sapiens, 48 h
Experimental: as §1, §2, §3

[1] = system: MCF-10A (human breast epithelial cell line); test: Cytotoxic activity against MCF-10A; conditions: cytotoxicity, normal breast epithelial cells
Experimental: as §1

| Structure (SMILES) | IC50 (MCF-7 cells) [µM] | IC50 (MDA-MB-231 cells) [µM] | IC50 [1] [µM] |
| --- | --- | --- | --- |
| COc1cc(/C=C/c2ccc(O)cc2)cc(OC)c1 [PTE, 3,5-dimethoxy-4′-hydroxy-trans-stilbene, reference compound] | 44.3 ± 0.48 | 63.59 ± 0.4 | > 100 |
| COc1cc(/C=C/c2ccc(OCCCN3CCN(C)CC3)cc2)cc(OC)c1 [Compound 2N, (E)-1-(3-(4-(3,5-dimethoxystyryl)phenoxy)propyl)-4-methylpiperazine] | 18.1 ± 0.55 | 17.7 ± 0.81 | 37.3 ± 0.96 |
| COc1cccc2c1C(=O)c1c(O)c3c(c(O)c1C2=O)C[C@@](O)(C(=O)CO)C[C@@H]3O[C@H]1C[C@H](N)[C@H](O)[C@H](C)O1 [Dox, Doxorubicin, reference compound] | 3.57 ± 0.41 | 2.3 ± 0.32 | 2.27 ± 0.19 |
